{"source": "patent US7662941B2", "about": "“Embryonic stem cell self maintenance and renewal reporter” (The Trustees of the University of Princeton - Princeton …, priority 2005, dated 2010)", "type_in_all_cases": "cell-based, mouse", "key": {"[1]": {"test_system": "Nanog/GFP expression in NeFREC(g)", "experiment": "Chemical genomics screen in NeFREC(g), ES medium without LIF, Nanog/GFP by flow cytometry", "conditions": "for Effect on RA-induced Nanog/GFP downregulation: agent plus RA compared to RA-induced differentiation condition; for Effect on Nanog/GFP expression / ES cell differentiation induced by omission of LIF: compound alone in ES medium without LIF, one and two days", "procedure": "To validate the use of NeFRECs as an easy reporter cell in chemical genomics proof-of-principle studies were performed with several compounds that are known to show effects on ES cell self-renewal and differentiation or were previously tested in early embryonic development and cancer therapy. The compounds included in the experiment were RA (Sigma, Cat# R2625), Trichostatin A (TSA, Sigma, Cat# T8552, a histone deacetylase (HDAC) inhibitor), Ly294002, (CALBIOCHEM, Cat# 440202, a phosphatidylinositol 3-kinase (PI3K) inhibitor), Rapamycin (Rapa, Sigma, Cat# R0395, an inhibitor of mTOR), PD98059 (CALBIOCHEM, Cat# 513000, a MAP kinase (MAPK) inhibitor), 5-aza-2′-deoxycytidine (AZA, Sigma, Cat# A3656, an inhibitor of DNA methytransferases).\n(§1) For the chemical genomics screen 2.5×10^4 cells in 0.5 ml ES medium were plated per 24-well the day before treatment. Medium without LIF supplemented with the different compounds at indicated concentrations was added 24 hrs post-plating. Medium was changed daily. Nanog/GFP levels for each sample were measured by flow cytometry one and two days post drug treatment. Average percentages of Nanog/GFP^+ cells were calculated from duplicate samples (FIG. 10A)."}, "NeFREC(g)": {"test_system": "NeFREC(g)", "experiment": "Cell morphology of NeFREC(g) after compound treatment", "conditions": "day 2 of treatment", "procedure": "Microscopy. Microscopy was performed on a Nikon Eclipse TE2000-U microscope with appropriate filter sets, CoolSnapES (black and white/fluorescence) and DXM1200F (color) cameras, and MetaView (black and white/fluorescence) and ACT (color) image-processing software.\nas §1\nAddition of RA, LY294002 or PD98059 to the cultures has different effects on ES cell colony morphology."}, "[2]": {"test_system": "Nanog/GFP expression in NeFREC(g)", "experiment": "Nanog/GFP expression of NeFREC(g) clones in response to RA, flow cytometry", "procedure": "ES cell growth and differentiation. ES cells were maintained on gelatin-coated tissue culture plates in Dulbecco's Modified Eagels Medium (DMEM; Invitrogen/Gibco) supplemented with 15% fetal calf serum (FCS), 1 mM sodium pyruvate, 2 mM L-glutamine (Invitrogen/Gibco), 0.1 mM non-essential amino acids (Invitrogen/Gibco), 100 U/ml penicillin, 100 μg/ml streptomycin, 1×10^−4 M 2-Mercaptoethanol (2-ME) and 1000 U/ml leukemia inhibitory factor (LIF; ESGROW, Chemicon), henceforth referred to as ES medium. Medium was changed every day and cells were split every second day.\nOne day prior to differentiation cells were plated on gelatinized culture dishes in the aforementioned medium. Differentiation was induced either by removal of LIF or removal of LIF and addition of retinoic acid (RA, Sigma) if grown in ES medium or either LIF or Bmp4 or both if grown in SF-ES medium.\nCell surface staining, FACS analysis and Cell Sorting. Standard conditions were used to stain the cells. Cell suspensions were analyzed on a FACS Sort (Becton Dickinson). Cell sorting was performed using a FacsVantage with DiVa Software (Becton Dickinson).\nNeFREC(g) clones. To determine the dynamics of Nanog/GFP expression of NeFREC(g) clones in response to RA, 4 individual clones (numbers 4, 9, 20 and 23) were analyzed in detail (FIG. 6a upper panel). 2.5×10^4 cells were plated in 0.5 ml ES medium the day before RA treatment. ES medium without LIF and supplemented with 10 μM RA (10 mM stock dissolved in 100% ethanol) was added to cells 24 hours post-plating (indicated as day 0). Nanog/GFP levels in treated cells were measured daily, day 0 to day 3, by flow cytometry. […] By day 3, less than 5% cells remain Nanog/GFP+ in response to RA treatment. […] Eef1b gene expression was used as loading control (5′-[…]-3′ (SEQ ID NO:17) and 5′-[…]-3′ (SEQ ID NO:18)).\nTo further determine the dynamics of Nanog/GFP expression of NeFREC(g), a RA dosage response experiment, ranging from 0.2 to 10 μM RA, was performed (FIG. 6B). An RA dosage of 0.2 μM is sufficient to induces a rapid and significant downregulation of Nanog/GFP expression in NeFREC(g). Omitting LIF from the ES medium also induces loss of Nanog/GFP expression in these cells at a slower rate compared to RA treatment. Forty percent of the cells still remain Nanog/GFP^+ by day 3. A RA pulse experiment was performed to determine the time required to initiate Nanog/GFP downregulation (i.e. differentiation) in response to 1 μM of RA (FIG. 6C). 2.5×10^4 cells were plated initially in 0.5 ml media per well in a 24-well plate the day before treatment. Cells were pulsed with 1 μM RA in ES medium without LIF for the indicated time periods and then changed to fresh ES medium. Nanog/GFP expression was measured after one day and two days of RA treatment."}, "ES cells": {"test_system": "ES cells"}, "[3]": {"test_system": "Nanog/GFP expression in NeFREC(g)", "experiment": "Combinatorial RA and TSA treatment of NeFREC(g), Nanog/GFP by flow cytometry", "procedure": "In brief, 2.5×10^4 cells were plated in 0.5 ml ES medium. The HDAC inhibitor TSA was added at various concentrations 24 hours post-plating. One day after TSA treatment, medium was changed to ES medium without LIF plus 1.0 μM RA (indicated as day 0). Medium was changed and Nanog/GFP expression monitored by flow cytometry on a daily basis. […] 75 nM TSA rescued Nanog/GFP levels by more than 50% by day 2."}, "[4]": {"test_system": "Nanog/GFP expression in NeFREC(g)", "experiment": "Transient RNA shRNA transfection of NeFREC(g), Nanog/GFP by flow cytometry", "conditions": "for Nanog/GFP expression (NeFREC(g) bearing Nanog/GFP): by three days, from 90.9%", "procedure": "(§2) RNA shRNA Transfection. For transfection of RNA shRNA, cells were harvested, washed with DMEM and resuspended at 2×10^5/ml in medium without penicillin and streptomycin. 250 μl of medium without penicillin and streptomycin was added per gelatin pre-coated well of a 24-well culture plate. In order to prepare the RNA shRNA transfection mixture per well, 10-20 μl of RNA shRNA [1 pmole/μl] was mixed with OptiMEM (Invitrogen/Gibco) in a final volume of 50 μl. In a separate tube, 1 μl Lipofectamine2000 (Invitrogen) was added to 49 μl of OptiMEM per sample. The RNA shRNA/OptiMEM and Lipofectamine/OptiMEM solutions were combined, mixed, incubated for 20 min at room temperature and added to the well. Then, 250 μl of cell solution, i.e., 5×10^4 cells/well, were added and the 24-well plate incubated in a humidified chamber in 5% CO2/air mixture at 37° C. Twenty-four hours after transfection, medium was replaced with appropriate medium with penicillin and streptomycin.\nRNA shRNA against GFP (5′-[…] UAGACGUUGUGGCUGU-3′; SEQ ID NO:31) was transfected into NeFREC(g) as described in Example 1. Ten pmole of RNA shRNA against GFP reduced Nanog/GFP reporter expression in NeFREC(g) from 85.8% down to 18% 72 hours post-transfection (FIG. 11A). The reduction in Nanog/GFP fluorescence is RNA shRNA concentration-dependent.\nThe transcription factor Pou5f1 is required for ES cell maintenance and when reduced by more than 50% of wild-type levels results in differentiation towards trophectodermal cells (Niwa et al., 2000 Nat. Genet. 24:372-376). Therefore, 10 pmole of RNA shRNA against Pou5f1 (5′-[…] UAAGGCUGAGCUGCAA-3′; SEQ ID NO:32) was transfected into NeFREC(g)."}, "[5]": {"test_system": "Nanog/GFP expression in NeFREC(g)-SF", "experiment": "Transient RNA shRNA transfection of NeFREC(g)-SF, Nanog/GFP by flow cytometry", "conditions": "NeFREC(g)-SF in SF-ES medium, by day 2; from 94.8%", "procedure": "Alternatively, ES cells were maintained on gelatin-coated tissue culture plates in a 1:1 mixture of Neurobasal with N2-supplement (Invitrogen/Gibco) and DMEM/F12 with B27 (Invitrogen/Gibco) supplemented with 10% fraction V bovine serum albumin (BSA; Sigma) and 100 U/ml penicillin, 100 μg/ml streptomycin, 1×10^−4 M 2-ME), 1000 U/ml LIF and 10 ng/ml bone morphogenic protein (Bmp) 4 (R&D Systems), henceforth referred to as SF-ES medium. Medium was changed every day and cells split every second day.\nas §2, with “Twenty-four hours after transfection, medium was replaced with appropriate medium with penicillin and streptomycin.” left out"}}, "note": "Where two headings read alike, the source gives them in different places.", "data": [{"molecule": "COc1cccc(-c2cc(=O)c3ccccc3o2)c1N", "note": "[PD98059]", "values": [{"measurement": "Effect on RA-induced Nanog/GFP downregulation", "setting": "[1]", "value": "delay RA-induced Nanog/GFP downregulation"}, {"measurement": "Effect on Nanog/GFP expression / ES cell differentiation induced by omission of LIF", "setting": "[1]", "value": "blocked or delayed ES cell differentiation"}, {"measurement": "ES cell colony morphology", "setting": "NeFREC(g)", "value": "look more like NeFREC(g) cultured in ES medium alone"}]}, {"molecule": "CC1=C(/C=C/C(C)=C/C=C/C(C)=C/C(=O)O)C(C)(C)CCC1", "note": "[RA, retinoic acid]", "values": [{"measurement": "cells remaining Nanog/GFP+", "setting": "[2]; 10 μM RA, ES medium without LIF, by day 3", "value": "less than 5%"}, {"measurement": "GFP levels after RA pulse", "setting": "[2]; 24-hour treatment with 1 μM RA in ES medium without LIF, then fresh ES medium, from more than 90%", "value": 45, "unit": "%"}, {"measurement": "NeFREC(g)s in which the differentiated state is irreversibly fixed", "setting": "[2]; after 24-hour differentiation pulse, 1 μM RA", "value": "about 50%"}, {"measurement": "RA dosage sufficient to induce rapid and significant downregulation of Nanog/GFP expression", "setting": "[2]; dosage response 0.2 to 10 μM RA", "value": 0.2, "unit": "µM"}]}, {"molecule": "CC(/C=C/C(=O)NO)=C\\[C@@H](C)C(=O)c1ccc(N(C)C)cc1", "note": "[TSA, Trichostatin A]", "values": [{"measurement": "Effect on RA-induced Nanog/GFP downregulation", "setting": "[1]", "value": "delay RA-induced Nanog/GFP downregulation"}, {"measurement": "Effect on Nanog/GFP expression / ES cell differentiation induced by omission of LIF", "setting": "[1]", "value": "blocked or delayed ES cell differentiation"}, {"measurement": "Concentration sufficient to kill all ES cells", "setting": "ES cells; by day 3 of culture", "value": 300, "unit": "nM"}, {"measurement": "Cell death as indicated by floating cells in culture", "setting": "ES cells; too high concentrations", "value": "can cause cell death at too high concentrations"}, {"measurement": "Rescue of Nanog/GFP levels", "setting": "[3]; 75 nM TSA, then 1.0 μM RA, by day 2", "value": "more than 50%"}, {"measurement": "TSA concentrations at which RA-induced downregulation of Nanog/GFP is markedly reduced", "setting": "[3]; TSA 24 h, then ES medium without LIF plus 1.0 μM RA", "value": "higher than 75 nM"}]}, {"molecule": "Nc1ncn([C@H]2C[C@H](O)[C@@H](CO)O2)c(=O)n1", "note": "[AZA, 5-aza-2′-deoxycytidine]", "values": [{"measurement": "Effect on RA-induced Nanog/GFP downregulation", "setting": "[1]", "value": "delay RA-induced Nanog/GFP downregulation"}, {"measurement": "Effect on Nanog/GFP expression / ES cell differentiation induced by omission of LIF", "setting": "[1]", "value": "blocked or delayed ES cell differentiation"}, {"measurement": "Cell death as indicated by floating cells in culture", "setting": "ES cells", "value": "can cause cell death at too high concentrations"}]}, {"molecule": "RNA shRNA against GFP: RNA shRNA against GFP, SEQ ID NO:31 (nucleic acid, siRNA; RNA, backbone not given here; hairpin shRNA transfected as RNA) AGCCACAACGUCUAUAUCAUGGCCGACAAGUUGGCUUGUCGGCCAUGAUAUAGACGUUGUGGCUGU", "values": [{"measurement": "Concentration dependence of reduction in Nanog/GFP fluorescence", "setting": "[4]; 0 to 10 pmole RNA shRNA", "value": "concentration-dependent"}, {"measurement": "Nanog/GFP reporter expression", "setting": "[4]; 10 pmole RNA shRNA, 72 hours post-transfection, from 85.8%", "value": 18, "unit": "%"}, {"measurement": "Nanog/GFP expression (NeFREC(g) bearing Nanog/GFP)", "setting": "[4]; 10 pmole RNA shRNA", "value": 21.2, "unit": "%"}, {"measurement": "Nanog/GFP levels", "setting": "[5]", "value": 14.1, "unit": "%"}]}, {"molecule": "RNA shRNA against Pou5f1: RNA shRNA against Pou5f1, SEQ ID NO:32 (nucleic acid, siRNA; RNA, backbone not given here; hairpin shRNA transfected as RNA) GCAGCUCAGCCUUAAGAACAUGUGUAAGCUUUGGAGCUUACACAUGUUCUUAAGGCUGAGCUGCAA", "values": [{"measurement": "Nanog/GFP expression (NeFREC(g) bearing Nanog/GFP)", "setting": "[4]; 10 pmole RNA shRNA", "value": 73.1, "unit": "%"}, {"measurement": "Nanog/GFP levels", "setting": "[5]", "value": 68.5, "unit": "%"}]}]}
